Test results from article PMC3434217, “Specificity Determinants of the Silkworm Moth Sex Pheromone” (PLoS ONE, 2012).

Key:
Assay type in all cases: cell-based
BmorOR1 [1] = target: T1, BmorOR1 (Bombyx mori, UniProt Q5WA61); test: two-electrode voltage clamp in Xenopus oocytes expressing BmorOR1 and BmorOrco (injection, source dose)
T1 construct: gene BmOR-1; full-length; with BmorOrco
T1 sequence (Q5WA61 1-430): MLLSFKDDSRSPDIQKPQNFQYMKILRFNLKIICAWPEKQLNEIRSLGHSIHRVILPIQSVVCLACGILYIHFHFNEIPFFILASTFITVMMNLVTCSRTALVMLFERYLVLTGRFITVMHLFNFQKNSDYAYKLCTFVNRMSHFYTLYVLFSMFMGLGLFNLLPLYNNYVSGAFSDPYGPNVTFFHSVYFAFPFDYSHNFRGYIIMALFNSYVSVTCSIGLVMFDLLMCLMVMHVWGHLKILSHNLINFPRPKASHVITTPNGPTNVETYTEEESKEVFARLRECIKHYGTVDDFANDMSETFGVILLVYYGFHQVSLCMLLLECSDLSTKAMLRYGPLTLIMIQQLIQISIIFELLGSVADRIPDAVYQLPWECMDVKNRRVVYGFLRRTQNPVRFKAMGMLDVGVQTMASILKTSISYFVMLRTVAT
T1 sequence (Q7YT34 1-472 partner): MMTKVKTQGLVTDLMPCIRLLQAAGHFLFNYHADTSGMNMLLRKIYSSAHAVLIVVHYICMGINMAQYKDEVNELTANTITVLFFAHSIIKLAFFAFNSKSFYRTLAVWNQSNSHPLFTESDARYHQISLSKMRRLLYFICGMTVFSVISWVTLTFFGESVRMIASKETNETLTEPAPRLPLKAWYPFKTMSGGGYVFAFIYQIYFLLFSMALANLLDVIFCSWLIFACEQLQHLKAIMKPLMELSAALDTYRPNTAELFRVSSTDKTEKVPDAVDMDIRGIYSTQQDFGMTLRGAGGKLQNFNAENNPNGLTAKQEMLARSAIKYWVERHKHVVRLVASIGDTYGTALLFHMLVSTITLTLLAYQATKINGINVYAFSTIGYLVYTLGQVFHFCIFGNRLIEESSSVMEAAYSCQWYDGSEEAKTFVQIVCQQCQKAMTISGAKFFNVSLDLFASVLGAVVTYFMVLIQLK

BmorOR1 [2] = target: T1, BmorOR1; test: two-electrode voltage clamp in Xenopus oocytes expressing BmorOR1 and BmorOrco (perfusion)
BmorOR1 [3] = target: T1, BmorOR1; test: two-electrode voltage clamp in Xenopus oocytes expressing BmorOR1 and BmorOrco, dose-response

SMILES | EC50 (BmorOR1 [3]) [µM] | other results
CCC/C=C\C=C\CCCCCCCCC=O [bombykal] |  | EC50 (BmorOR1 [1]): 9.6 µM
CCC/C=C\C=C\CCCCCCCCCO [compound 1, (10E,12Z)-hexadecadien-1-ol] |  | EC50 (BmorOR1 [2]): 0.0454 µM
CCC/C=C\C=C\CCCCC#CCCCO [compound 10] | 17 | 
CCC/C=C\C=C\CCCC/C=C\CCCO [compound 11, (4Z,10E,12Z)-hexadecatrien-1-ol] | 13 | 
